Experimental data: patent US20250091911A1, “NANOFILTRATION SYSTEM AND METHOD INCLUDING PRETREATMENT WITH GREEN SORPTION MEDIA” (University of Central Florida Research Foundation, Inc., priority 2023, published 2025)

Experiments:
[1] = Crossflow nanofiltration of ZIPGEM-pretreated water; settings: for PFAS concentration, membrane permeates (MP): ZIPGEM-nanofiltration @ 30 h
Description: (§1) The water samples were collected from the same site of the C-23 canal during both the dry and wet seasons. However, only wet season water samples were used in the experiment. The water samples were analyzed for both long-chain (PFOA and PFOS) and short-chain (Perfluorobutanoic acid [PFBA] and Perfluorobutanesulfonic acid [PFBS]) PFAS following the modified EPA 537.1 method (Shoemaker & Tettenhorst, 2020). Through this method, an aliquot of a 250 mL water sample containing analytes and internal standards is extracted via solid phase extraction. The extracted analytes and internal standards are then eluted with methanol and ammonium hydroxide in methanol solvent. Then the eluted samples are dried with nitrogen and reconstituted to 1 mL volume with a buffer solution. The samples are then injected into a C18 liquid chromatography column, and the PFAS compounds are separated by a gradient of pure methanol and 20 mM ammonium acetate. Finally, the eluted compounds are detected, and their concentrations are measured via tandem mass spectrometry. The method detection limits (MDLs) for PFBA, PFBS, PFOA, and PFOS were 0.5 ng·L^−1, 2 ng·L^−1, 0.5 ng·L^−1, and 1 ng·L^−1, respectively. The concentration of calcium ion (Ca^2+) was analyzed at Eurofins Flowers's Chemical Laboratories (Altamonte Springs, Florida) following EPA method 6010D using inductively coupled plasma optical emission spectroscopy (MDL=0.096 mg·L^−1). Total organic carbon (TOC) and dissolved organic carbon (DOC) were measured using a TOC analyzer following EPA method 415.3.
(§2) A commercially available nanofiltration membrane (membrane ID: XN45) was used for the crossflow nanofiltration experiment. The membranes were acquired as flat sheets and cut into coupons of required sizes (active surface area of 42 cm^2) to fit into a membrane cell (CF042).
(§3) A bench-scale crossflow filtration setup was used in these experimental methods. The experimental setup consisted of a feed tank, a centrifugal pump, three CF042 membrane cells connected to pressure gauges, check valves, and flowmeters. A recirculating chiller was used for regulating the temperature at 20° C. Three high-precision balances were used to measure the weight of the collected permeate and to calculate the flowrates. The scales were connected to a computer for data acquisition.
(§4) Before each experimental run, the membrane cells and tubing were cleaned by running DI water as feed without placing any membrane coupons inside the cells. Then the membrane coupons were mounted into the cells firmly and compacted at 100 psi for at least 4 h using DI water. After that, 5 L of the effluents from the pretreatment media (i.e., the C-23 water samples that were run through the CPS and ZIPGEM) were taken as feedwater for each nanofiltration filtration experiment. The experiments were run for 24 h before collecting permeates and feed samples for analysis. The experiments were conducted at a constant flowrate of 1.0 L·min^−1, with a corresponding cross flow velocity of 0.18 m·s^−1. The transmembrane pressure was initially set to 110 psi at the beginning of the permeate collection by regulating inlet and retentate valves. However, the pressure changed over time as feed concentration increased during the permeate collection. The experiment was run in total recirculation mode, whereby both the retentate and permeate were recycled, except the time of permeate collection.
(§5) The average removal efficiencies of each media pretreatment were calculated based on PFAS concentrations in the influents and effluents of triplicate columns, as disclosed in TABLE 5. […] The overall efficiency of the hybrid treatment was calculated by comparing the average concentrations of PFAS in the influents of the green sorption media pretreatment columns and the nanofiltration permeates, as disclosed in TABLE 6. […]

[2] = cited from earlier work
[3] = Overall removal by CPS-nanofiltration water treatment system
Excerpt: (§6) Water samples collected from the C-23 canal were first fortified with PFOS and PFOA and then used as influents to the pretreatment column containing one of the two green sorption media. Note the water samples were not fortified with PFBA and PFBS. The green sorption media effluent served as the feedwater for the nanofiltration unit of the proposed water treatment system. The nanofiltration membrane unit without any green sorption media-based pretreatment served as the “control.” The integration of a green sorption media (CPS or ZIPGEM) with crossflow nanofiltration is herein referred to as a water treatment system, denoted as CPS-nanofiltration or ZIPGEM-nanofiltration. The CPS and ZIPGEM column influents and effluents and nanofiltration permeates were analyzed for both long-chain (PFOS and PFOA) and short-chain (PFBS and PFBA) PFAS. FIG. 3 presents the green sorption media-nanofiltration hybrid treatment scheme.
(§7) The average removal efficiencies of each media pretreatment were calculated based on PFAS concentrations in the influents and effluents of triplicate columns, as disclosed in TABLE 5. […] The overall efficiency of the hybrid treatment was calculated by comparing the average concentrations of PFAS in the influents of the green sorption media pretreatment columns and the nanofiltration permeates, as disclosed in TABLE 6.
(§8) where C0 is the concentration of PFAS in the column influent or nanofiltration feed in ng·L^−1, and where Ce is the concentration of PFAS in the column effluent or nanofiltration permeate in ng·L^−1. TABLE 7 summarizes the key findings of the green sorption media-based pretreatment and green sorption media-nanofiltration treatment, and these are explained in the subsequent subsection through an in-depth discussion and statistical analysis. It should be noted that PFOS concentration was slightly higher in the membrane permeates compared to the effluent of green sorption media pretreatment media, as disclosed in TABLE 5. The slight increase in PFOS concentration could be attributed to the filtration experimental setup that operated in a total recirculation mode. However, most of the differences were very close to the MDL for PFOS (1 ng·L^−1), which was already undetected in the green sorption media effluent

[4] = Overall removal by ZIPGEM-nanofiltration water treatment system
Excerpt: as §6, §7, §8

[5] = Control: nanofiltration without green sorption media pretreatment
Description: as §1, §6
A bench-scale crossflow filtration setup was used in these experimental methods. The experimental setup consisted of a feed tank, a centrifugal pump, three CF042 membrane cells connected to pressure gauges, check valves, and flowmeters. A recirculating chiller was used for regulating the temperature at 20° C. […]

[6] = Crossflow nanofiltration of CPS-pretreated water; settings: for PFAS concentration, membrane permeates (MP): CPS-nanofiltration @ 9 h
Description: as §1, §2, §3, §4, §5

[7] = feed = ZIPGEM column 1 effluent
[8] = feed = ZIPGEM column 2 effluent
[9] = feed = ZIPGEM column 3 effluent

Structure (SMILES) | PFAS concentration, membrane permeates (MP) ([1]; Col 1) [ng/L] | PFAS concentration, membrane permeates (MP) ([1]; Col 2) [ng/L] | PFAS concentration, membrane permeates (MP) ([1]; Col 3) [ng/L] | nanofiltration membrane removal [1, 7] [%] | nanofiltration membrane removal [1, 8] [%] | nanofiltration membrane removal [1, 9] [%] | pKa [2] | O = overall removal by water treatment system ([3]; column 1) [%] | O = overall removal by water treatment system ([3]; column 2) [%] | O = overall removal by water treatment system ([3]; column 3) [%] | O = overall removal by water treatment system ([4]; column 1) [%] | O = overall removal by water treatment system ([4]; column 2) [%] | O = overall removal by water treatment system ([4]; column 3) [%] | % Removal by Control, O [5] [%] | PFAS concentration, membrane permeates (MP) ([6]; Col 1) [ng/L] | PFAS concentration, membrane permeates (MP) ([6]; Col 2) [ng/L] | PFAS concentration, membrane permeates (MP) ([6]; Col 3) [ng/L] | nanofiltration membrane removal ([6]; feed = CPS column 1 effluent) [%] | nanofiltration membrane removal ([6]; feed = CPS column 2 effluent) [%] | nanofiltration membrane removal ([6]; feed = CPS column 3 effluent) [%]
O=C(O)C(F)(F)C(F)(F)C(F)(F)F [PFBA, Perfluorobutanoic acid] | 4.43 | 4.77 | 4.70 | 37 | 32 | 36 | 0.40 | 58 | 45 | 53 | 40 | 36 | 41 | 67 | 3.20 | 4.17 | 3.60 | 47 | 28 | 33
O=S(=O)(O)C(F)(F)C(F)(F)C(F)(F)C(F)(F)F [PFBS, Perfluorobutanesulfonic acid] | 4.67 | 4.23 | 5.10 | 23 | 32 | 36 | 0.14 | 41 | 38 | 52 | 28 | 35 | 35 | 44 | 3.27 | 3.40 | 2.67 | 26 | 15 | 35
O=C(O)C(F)(F)C(F)(F)C(F)(F)C(F)(F)C(F)(F)C(F)(F)C(F)(F)F [PFOA, Perfluorooctanoic acid] | 21.67 | 14.00 | 23.67 | 66 | 78 | 68 | −0.20 | 98 | 94 | 97 | 73 | 82 | 70 | 82 | 2.27 | 5.83 | 2.43 | 40 | 58 | 78
O=S(=O)(O)C(F)(F)C(F)(F)C(F)(F)C(F)(F)C(F)(F)C(F)(F)C(F)(F)C(F)(F)F [PFOS, Perfluorooctanesulfonic acid] | 1.70 | 0.79 | 1.05 | 100 | 100 | 100 | 0.14 | 100 | 100 | 100 | 100 | 100 | 100 | 84 | 2.0 | 1.90 | 0.74 | 100 | 100 | 100
